Experimental data reported in publication PMC10300260 (The Journal of Biological Chemistry, 2023).

What was measured:
[1] = target: T1, TcK2 (T. cruzi eIF2α kinase 2, PERK homologue); assay: LANCE TR-FRET kinase assay with p70S6K peptide; DSF ΔTm […] °C; knockout parasites less sensitive; assay type: biochemical, Trypanosoma cruzi
T1 construct: gene TcYC6_0089220; kinase domain KD5 (S659-I976)

[2] = target: T1, TcK2 (T. cruzi eIF2α kinase 2, PERK homologue); assay: LANCE TR-FRET kinase assay with p70S6K peptide; DSF ΔTm […] °C; assay type: biochemical, Trypanosoma cruzi

Structure (SMILES)	IC50 [1] [nM]	IC50 [2] [nM]
Cc1nc(Nc2ncc(C(=O)Nc3c(C)cccc3Cl)s2)cc(N2CCN(CCO)CC2)n1 [Dasatinib]	190 ± 20	
Cn1cc(-c2[nH]c3cc(NC(=O)[C@H](N)C4CCCCC4)cc4c3c2C=NNC4=O)cn1 [PF-477736]		670 ± 20
